This data set can be described thus: Safety and tolerability in healthy subjects across the four Phase I studies. The data set is classed as in vivo, human. As to the method:
Each one of the four studies described were conducted and completed at a single center in the United States (Parexel International, Baltimore, MD) per the ethical principles of “good clinical practice” (GCP) and the Declaration of Helsinki after obtaining a written informed consent from each subject. The protocols and amendments were approved by Aspire Investigational Review Board (Santee, California, USA).
Other screening assessments included 24‐hour Holter monitoring and baseline echocardiograms.
Nonclinical evaluation in short duration toxicology studies initially gave rise to potential cardiovascular signals which were minimal, appeared sporadically, and were not reproduced in longer term studies. Consequently, there was intensive and extensive cardiovascular monitoring at baseline and post‐dosing, including continuous Holter monitoring and regular cardiac troponin laboratory assessments in these early Phase I studies along with a high degree of vigilance for any findings and/or reported AEs of potential cardiovascular origin.

Each structure is given as a SMILES string. Entries after “also recorded” stand apart in the source; their conditions may differ.

Experimental findings from PMC5989765, “The safety, tolerability, and pharmacokinetic profile of GSK2838232, a novel 2nd generation HIV maturation inhibitor, as assessed in healthy subjects” (Pharmacology Research & Perspectives, 2018) are described below.

On to `CC(C)C1=C2[C@H]3CC[C@@H]4[C@@]5(C)CC[C@H](OC(=O)CC(C)(C)C(=O)O)C(C)(C)[C@@H]5CC[C@@]4(C)[C@]3(C)CC[C@@]2([C@@H](O)CN(CCN(C)C)Cc2ccc(Cl)cc2)CC1=O` [GSK2838232], for which the “cardiovascular toxicities / events related to study drug” value (healthy subjects) is on record as “no cardiovascular toxicities were deemed related to study drug administration; also recorded: none were considered definitively related to GSK2838232”. The adverse events result (healthy subjects, all dose regimens, up to 250 mg) is reported as “few mild adverse events (AEs) with similar frequencies to placebo; also recorded: Few adverse events (AEs) were reported across all dose regimens”. Further, the “drug‐related AEs” value (healthy subjects, four studies) is reported as “no clearly identified drug‐related AEs”. Also, the “changes in hematology or clinical chemistry laboratory values, including liver function tests” value (healthy subjects, exception one subject with gallstones (not treatment‐related)) was “no clinically significant changes”. In addition, the “AEs assessed with a reasonable likelihood of being drug‐related” value (infrequently reported) was “headache and dizziness”. In addition, the safety and tolerability result (single doses up to 250 mg with 100 mg RTV, repeat doses up to 200 mg with 100 mg RTV for 11 days) is “good safety and tolerability profile”.
